Reference: US20250250265A1, “BENZOTHIAZOLE-PHENYLSULFONYL-PIPERIDINE ANALOGS AS ACTIVATORS OF NACYLPHOSPHATIDYLETHANOLAMINE HYDROLYZING PHOSPHOLIPASE D” (priority 2022, published 2025)
Several values for one entry are separate records, joined by “and”; a condition that tells them apart may be missing. Equal values may be shown once. Read-outs that look alike come from different tables or passages of the source. Marks after values point to notes of the source that are not given here.

What was measured:
[1] = target: T1, recombinant mouse NAPE-PLD (Mus musculus, UniProt Q8BH82); assay: In vitro fluorescence NAPE-PLD activity assay (HTS/CRC) with recombinant mouse NAPE-PLD and PED-A1; format: biochemical; conditions: for Max % bA (%): maximum induced activity compared to basal (100%) activity; for Emax (95% Cl): Table 4, maximal efficacy as fold increase in NAPE-PLD activity versus vehicle only
T1 construct: hexahistidine (His6) (C); made in house; host or cells: E. coli
T1 sequence (Q8BH82 1-396): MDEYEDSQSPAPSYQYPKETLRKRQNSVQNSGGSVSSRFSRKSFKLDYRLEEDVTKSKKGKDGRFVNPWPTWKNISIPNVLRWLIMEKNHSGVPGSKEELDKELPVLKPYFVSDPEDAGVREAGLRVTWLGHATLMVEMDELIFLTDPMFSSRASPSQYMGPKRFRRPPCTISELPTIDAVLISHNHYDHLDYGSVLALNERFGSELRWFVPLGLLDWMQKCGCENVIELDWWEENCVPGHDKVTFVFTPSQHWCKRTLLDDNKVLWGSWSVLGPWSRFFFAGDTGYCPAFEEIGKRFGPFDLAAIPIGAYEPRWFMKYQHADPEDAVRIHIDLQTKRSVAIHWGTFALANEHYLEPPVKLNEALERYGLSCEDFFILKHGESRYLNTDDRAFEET
Procedure: Using the fluorogenic NAPE substrate, PED-A1, and recombinant mouse NAPE-PLD (rNAPE-PLD), an in vitro high-throughput (HTS) assay was conducted to screen ˜40,000 compounds for their ability to modulate NAPE-PLD activity. The HTS assay enabled the detection of both NAPE-PLD activators and inhibitors. […] Initial structure-activity response studies with the top hits identified benzothiazole phenylsulfonyl-piperidine carboxamide analogs (BT-PSP analogs) as lead compounds for NAPE-PLD activators (Table 1). The lead BT-PSP analog identified, VU534, induces 50% of its activation effect on NAPE-PLD at 270 nM (AC50 270 nM), and induces a maximal effect of 195% of basal NAPE-PLD activity (Table 1).
In vitro fluorescence NAPE-PLD activity assays using recombinant NAPE-PLD and either PED-A1 or flame-NAPE as fluorogenic substrate were performed as previously described except with small modifications as noted below. See Aggarwal et al., J. Biol. Chem. 295(21): 7289-7300 (2020); Zarrow et al., J. Lipid Res. 63(1): 100156 (2022).
For the HTS assays, test compounds were incubated with recombinant enzyme for 1 h prior to adding PED-A1 (final 0.4 μM) mixed with N-palmitoyl-dioleoyl-PE (final 3.6 μM) to adjust for the high sensitivity of the Panoptic instrument (WaveFront Biosciences). Assays used black-wall, clear-bottom, non-sterile, and non-treated 384-well plates (Greiner Bio-One 781906). The assay was read in kinetic fluorescence mode on the Panoptic instrument for 4 min and the slope of the signal from 30-100 s was used for analysis. A total of 39,328 compounds from the Vanderbilt Discovery Collection were tested, each at 10 μM. The tested compounds were chosen to represent a structurally diverse selection from the full library. Each 384-well plate included 320 test compound wells and 64 control wells. Unlike previous pilot screening assays, bithionol (10 μM final) was used in place of lithocholic acid (100 μM final) as the inhibitor control. Before performing high-throughput screening, a checkerboard assay was performed to validate the assay parameters. This yielded a Z′ score of 0.676. Z′ scores were also calculated for each plate during screening, and plates with scores <0.5 were re-run. The average Z′ across all screening plates was 0.52, and the total hit rate was 3.6%. B-scores were calculated from the initial slopes across each plate using WaveGuide software (WaveFront Biosiences). Modulator hits were defined as compounds with absolute B-scores of 3 or higher. The number of compounds in various B-score ranges were as follows: […], 12 compounds; −10 to −5, 221 compounds; −5 to −3, 770 compounds; −3 to 3, 37924 compounds; 3 to 4, 314 compounds; 4 to 6, 70 compounds; 6 to 10, 15 compounds. Activator hits with B-scores of >3 were selected for the replication assay and a selection of analogs of the activators.
Concentration response curve (CRC) experiments used the same assay conditions as the HTS assay, except that graded concentrations of each test compound were used, with total amount of vehicle (DMSO) kept constant. CRC experiments with purified recombinant mouse NAPE-PLD were performed on two separate days, with values from each day normalized to vehicle only controls on same plate, and then all normalized values from both days averaged together. CRC experiments with human NAPE-PLD represent value from only a single day, due to limited amounts of this recombinant enzyme.

[2] = system: RAW264.7 mouse macrophages; assay: Cytotoxicity (MTT) in RAW264.7 macrophages; format: cell-based
Procedure: (§1) Cytotoxicity was measured using MTT as previously described except that the studies used 96-well plates with 100 μL of 0.3 mg/mL MTT solution was added after 24 h of treatment and then replaced after 3 h with 0.1 M HCl in isopropanol. See Aggarwal et al., J. Biol. Chem. 295(21): 7289-7300 (2020). Viability was expressed as percent absorbance at 560 nm relative to vehicle controls.

[3] = target: T2, NAPE-PLD activity of HepG2 cells (Homo sapiens, UniProt Q6IQ20); assay: Cell-based NAPE-PLD activity in HepG2 cells (flame-NAPE); conditions: Table 3; 10 μM
T2 construct: endogenous in cells; host or cells: HepG2
Procedure: In vitro models of the hepatic steatosis of non-alcoholic fatty liver disease (NAFLD) are well-established, with the primary method being incubation of primary human hepatocytes or hepatocyte cell lines such as HepG2, HuH7, HepaRG, with oleic acid and palmitic acid for 24 to 48 h, then measuring the resulting steatosis, lipid peroxidation, apoptosis, and inflammatory gene expression. Using flame-NAPE to measure NAPE-PLD activity in the human hepatoma HepG2 cell line, the experimental data confirmed that VU534 activated NAPE-PLD in human cells (AC50 940 nM; max % bA 155%). Bithionol (10 μM) reduced HepG2 flame-NAPE hydrolysis by >67%.
NAPE-PLD activity was measured in cells as previously described, except that FluoroBrite DMEM (Gibco A1896701) was used as media. See Zarrow et al., J. Lipid Res. 63(1): 100156 (2022). For RAW264.7 assays, PED-A1 (3.6 μM final) was used as the substrate with 10 μM orlistat added to inhibit PLA1 activity, while for HepG2 cells, flame-NAPE was used (with no orlistat added).

[4] = system: HepG2 human hepatocytoma cells; assay: Cytotoxicity (MTT) in HepG2 cells; format: cell-based; conditions: Table 3; 33 μM
Procedure: as §1

[5] = target: T3, Fatty Acid Amide Hydrolase (FAAH) (Homo sapiens, UniProt O00519); assay: FAAH activity assay (Cayman Chemicals); format: biochemical
T3 construct: purchased Cayman Chemicals
T3 sequence (O00519 1-579): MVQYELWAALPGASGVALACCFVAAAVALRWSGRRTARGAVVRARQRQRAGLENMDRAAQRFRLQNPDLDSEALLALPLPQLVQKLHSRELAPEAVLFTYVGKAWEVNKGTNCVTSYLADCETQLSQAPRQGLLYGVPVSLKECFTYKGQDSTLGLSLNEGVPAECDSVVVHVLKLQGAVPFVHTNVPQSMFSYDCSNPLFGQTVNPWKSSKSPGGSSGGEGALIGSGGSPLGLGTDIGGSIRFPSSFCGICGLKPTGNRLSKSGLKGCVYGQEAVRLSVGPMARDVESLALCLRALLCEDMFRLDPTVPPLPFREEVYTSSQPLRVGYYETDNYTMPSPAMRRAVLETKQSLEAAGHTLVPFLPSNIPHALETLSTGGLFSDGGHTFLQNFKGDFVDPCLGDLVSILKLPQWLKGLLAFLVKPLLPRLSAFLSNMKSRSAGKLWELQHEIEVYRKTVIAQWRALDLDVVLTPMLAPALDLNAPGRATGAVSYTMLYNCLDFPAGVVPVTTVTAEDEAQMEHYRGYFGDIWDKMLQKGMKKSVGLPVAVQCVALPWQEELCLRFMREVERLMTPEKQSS
Procedure: (§2) Concentration response curves were plotted for VU534 for the enzymes fatty acid amide hydrolase (FAAH) and soluble epoxide hydrolase (sEH).
(§3) The fluorescence interference assay was performed using the same method as the HTS assay, but with BODIPY-FL C5 (Thermo Fisher Scientific) used in place of PED-A1. sEH and FAAH activity assays were performed according to the manufacturer's specifications (Cayman Chemicals).

[6] = target: T4, soluble epoxide hydrolase (sEH) (Homo sapiens, UniProt P34913); assay: sEH activity assay (Cayman Chemicals); format: biochemical; conditions: 33 μM compound, compared to vehicle (0%)
T4 construct: purchased Cayman Chemicals
T4 sequence (P34913 1-555): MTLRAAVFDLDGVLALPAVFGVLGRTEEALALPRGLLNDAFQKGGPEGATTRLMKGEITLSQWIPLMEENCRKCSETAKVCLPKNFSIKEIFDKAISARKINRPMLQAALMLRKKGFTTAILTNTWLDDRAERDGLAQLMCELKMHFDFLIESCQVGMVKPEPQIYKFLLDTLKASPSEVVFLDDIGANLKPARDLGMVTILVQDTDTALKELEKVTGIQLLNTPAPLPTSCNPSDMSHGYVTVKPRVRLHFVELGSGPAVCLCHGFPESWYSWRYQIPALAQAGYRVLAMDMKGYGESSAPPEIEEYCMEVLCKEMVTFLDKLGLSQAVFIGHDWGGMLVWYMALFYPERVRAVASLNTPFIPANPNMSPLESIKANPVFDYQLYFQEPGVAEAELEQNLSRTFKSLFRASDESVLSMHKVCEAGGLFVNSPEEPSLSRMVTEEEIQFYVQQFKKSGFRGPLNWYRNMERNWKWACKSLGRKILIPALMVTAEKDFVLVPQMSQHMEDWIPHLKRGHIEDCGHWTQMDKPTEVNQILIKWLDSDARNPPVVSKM
Procedure: as §2, §3

[7] = Table 1, concentration for 50% maximum activation from basal activity (no activator)
[8] = Table 2, maximal induced activity for recombinant NAPE-PLD compared to basal (100%), read-out: Emax (%)
[9] = Table 3, read-out: In vitro EC50
[10] = Table 3, read-out: In vitro Emax (100% activity is baseline activity of vehicle only)
[11] = Table 2, rNAPE-PLD activity assay, read-out: EC50

T2 sequence (Q6IQ20 whole entry): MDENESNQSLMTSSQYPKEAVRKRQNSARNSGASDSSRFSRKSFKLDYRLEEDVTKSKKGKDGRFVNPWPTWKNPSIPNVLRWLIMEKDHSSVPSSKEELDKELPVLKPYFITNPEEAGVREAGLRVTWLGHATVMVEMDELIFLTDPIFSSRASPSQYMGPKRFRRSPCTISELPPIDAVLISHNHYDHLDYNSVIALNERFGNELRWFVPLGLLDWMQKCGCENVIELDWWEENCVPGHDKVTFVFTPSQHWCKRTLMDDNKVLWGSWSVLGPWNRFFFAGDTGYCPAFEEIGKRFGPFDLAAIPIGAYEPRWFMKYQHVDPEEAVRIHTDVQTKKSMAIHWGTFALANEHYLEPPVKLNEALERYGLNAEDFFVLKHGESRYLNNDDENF

Structure (SMILES)	Max % bA (%) ([1]; Table 1)	Emax [1, 8]	EC50 [1, 9]	Emax [1, 10]	Emax (95% Cl) [1]	EC50 [1, 11]	other results
Cc1cccc2sc(NC(=O)C3CCN(S(=O)(=O)c4ccc(F)cc4)CC3)nc12 [VU231]	<120%	< 120%	1.1 µM	168%	2.0^d fold	–	AC50 (nM) [1, 7]: Not active; EC50 (μM) ([1]; Table 2, rNAPE-PLD activity assay): Inactive
Cc1cc(F)ccc1S(=O)(=O)N1CCC(C(=O)Nc2nc3c(C)cccc3s2)CC1 [VU212]	–	–	~2.9 µM	~151%	1.6 (1.5-1.6) fold	–	% viability RAW 264.7 (33 μM) ([2]; Table 3, 33 μM): 32% and 56%; In-cell NAPE-PLD activity in HepG2 (10 μM) with PED-A1 or flame-NAPE as substrate [3]: 197% and 268%; % HepG2 viability (33 μM) [4]: 66% and 69%; Remaining FAAH Activity (33 μM) ([5]; Table 3, 33 μM): 61% and 79%
Cc1ccc2nc(NC(=O)C3CCN(S(=O)(=O)c4ccc(Cl)cc4)CC3)sc2c1 [VU539]	170%	170%	2.4 µM	167%	1.7 (1.6-1.8) fold	2.38 µM	AC50 [1, 7]: 2.38 µM
Cc1cc(F)ccc1S(=O)(=O)N1CCC(C(=O)Nc2nc3ccccc3s2)CC1 [VU205]	–	–	–	–	<1.2 fold	–	–
COc1ccc(S(=O)(=O)N2CCC(C(=O)Nc3nc4ccc(C)cc4s3)CC2)cc1 [VU601]	–	–	~1 µM	171%	1.8 (1.8-1.9) fold	–	–
Cc1cc(F)ccc1S(=O)(=O)N1CCC(C(=O)Nc2nc3c(C)cccc3s2)CC1 [MRJ-058A]	–	150%	–	–	–	2.9 µM	33 μM Mϕ % Viability ([2]; Table 2, Mϕ, 33 μM compound): 55%; inhibition at 33 µM [6]: 85%; inhibition at 33 µM ([5]; 33 μM compound, compared to vehicle (0%)): 20%
